Reference: patent US4104384A, “1-(2'-Aroyl eth-1'yl) 2-(4"-acetamido piperazine-1"yl methyl) benzimidazoles and their therapeutical applications” (priority 1975, dated 1978)

How the values were obtained:
gastric secretion = assay: Gastric antisecretory properties: gastric secretion after Shay ligature, intraduodenal; assay type: in vivo; conditions: intraduodenal, rat, read-out: Reduction of volume of gastric secretion
Source text: Administered intraduodenally to a rat, the compounds of formula (I) are capable of reducing gastric secretion measured after Shay ligature.

[1] = Acute toxicity, lethal dose 50; conditions: mouse, in vivo, po, read-out: Lethal dose 50 (mouse) / DL 50 (mouse) (converted)
volume of urine emitted = assay: Diuretic: volume of urine emitted; assay type: in vivo; conditions: po; rat, urine volume for 6 hours following administration; read-out: DE 50 (diuretic)
Protocol: The compounds of formula (I), administered orally to a rat, increase the volume of urine emitted, relative to controls, the volume being measured for the 6 hours following administration.

Shay's ulcer = assay: Anti-ulcerous properties: ulceration caused by ligature of the pylorus (Shay's ulcers), intraduodenal; assay type: in vivo; conditions: rat, read-out: Percentage reduction of Shay's ulcer
Source text: Furthermore, the compounds of formula (I) administered intraduodenally reduce the ulceration area caused by ligature of the pylorus of a rat (Shay's ulcers).

stress ulcers = assay: Anti-ulcerous properties: ulcerations in rat under stress for 7 hours, oral; assay type: in vivo; conditions: po, read-out: Percentage reduction of stress ulcers
arterial pressure = assay: Anti-hypertensive: arterial pressure in genetically hyperstressed vigil rats (S.H.R.); assay type: in vivo, rat; conditions: 10 mg/kg/p.o., 4 hours
Protocol: The compounds of formula (I) are capable, 4 hours after their oral injection, of bringing the arterial pressure down to normal in genetically hyperstressed vigil rats (S.H.R.).

[2] = system: uterine horn of a female rabbit; assay: Spasmolytic in vivo: contractions of the uterine horn caused by electric stimulation; conditions: 53 mg/kg/i.d.
Protocol: (§1) The compounds of formula (I), administered intraduodenally are capable of reducing the contractions of the jejunal ansa of a rabbit, caused by electric stimulation.
The same test was studied with the uterine horn of a female rabbit.
For example, compound No 73.0442, administered at a dose of 53 mg/kg/i.d. reduces by 85 % for more than an hour, the contractions of the uterine horn of a female rabbit caused by electric stimulation.

jejunal ansa of a rabbit = assay: Spasmolytic in vivo: contractions of the jejunal ansa caused by electric stimulation; conditions: 26.5 mg/kg/i.d.
Source text: as §1

painful stretchings = assay: Analgesic: painful stretchings following intraperitoneal injection of acetic acid; assay type: in vivo; conditions: po; mouse, 100 mg/kg/p.o.; read-out: Percentage diminution painful stretchings
Source text: The compounds of formula (I), administered orally to a mouse, are capable of reducing the number of painful stretchings following intraperitioneal injection of acetic acid.

[3] = system: bronchoconstriction caused by acetylcholine; assay: Anticholinergic and antibronchoconstrictive: bronchoconstriction by intravenous acetylcholine, Konzett's method; assay type: in vivo; conditions: Cavia porcellus, intraduodenal; guinea-pig, i.d., 25 mg/kg; read-out: Percentage inhibition of the bronchoconstriction
Source text: Injected intravenously or intraduodenally, the compounds of formula (I) are capable of opposing bronchoconstriction caused in a guinea-pig by intravenous injection of acetylcholine and evaluated by Konzett's method.

COc1ccccc1C(=O)CCn1c(CN2CCN(CC(=O)NC(C)C)CC2)nc2ccccc21 [75 0011]
inhibition in vivo at 25 mg/kg (gastric secretion; 25 mg/kg/i.d.): 75%
LD50 [1]: 120 mg/kg
ED50 (volume of urine emitted): 1 mg/kg
inhibition in vivo at 40 mg/kg (Shay's ulcer; 40 mg/kg/i.d.): 78%
inhibition in vivo at 20 mg/kg (stress ulcers; 20 mg/kg/p.o.): 51%
arterial pressure brought down to normal (arterial pressure): 4 animals out of 7

CC(C)NC(=O)CN1CCN(Cc2nc3ccccc3n2CCC(=O)c2ccccc2)CC1 [73 0442]
inhibition in vivo at 2.1 mg/kg (gastric secretion; 2.1 mg/kg/i.d.): 68%
LD50 [1]: 798 mg/kg
reduction of the contractions of the uterine horn for more than an hour [2]: 85%
inhibition in vivo at 7.6 mg/kg (Shay's ulcer; 7.6 mg/kg/i.d.): 88%
Diminution of contractions of the jejunum for more than an hour (jejunal ansa of a rabbit): 67%
inhibition in vivo at 5.2 mg/kg (stress ulcers; 5.2 mg/kg/p.o.): 99%
inhibition in vivo at 100 mg/kg (painful stretchings): 80%
inhibition in vivo at 25 mg/kg [3]: 100%
